Values joined by “and” are separate entries in the source; they are usually repeats but may differ in a detail not shown here. Identical values can stand only once. Toxic doses and inconclusive results are not listed. Rule as the data show it: active = T/C of 150% or more; inactive = T/C below 125%.
Tested on: L1210 leukemia ip in BDF1 mice, survival T/C
Assay: NCI In Vivo Anticancer Drug Screen. Data for tumor model L1210 Leukemia (intraperitoneal) in B6D2F1 (BDF1) mice
Settings: endpoint: mean survival time, higher = longer survival
Outline: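 Survival endpoint. Drug-treated group vs vehicle group, expressed as T divided by C. Tumor passaged by transplantation.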

[1] = dose: 100.0 mg/kg/injection, schedule: Q01DX009 (ip), vehicle: Klucel (hydroxypropylcellulose) (HPC)
[2] = dose: 100.0 mg/kg/injection, schedule: Q04DX003 (ip), vehicle: Klucel (hydroxypropylcellulose) (HPC)
[3] = dose: 200.0 mg/kg/injection, schedule: Q01DX009 (ip), vehicle: Klucel (hydroxypropylcellulose) (HPC)
[4] = dose: 200.0 mg/kg/injection, schedule: Q04DX003 (ip), vehicle: Klucel (hydroxypropylcellulose) (HPC)
[5] = dose: 400.0 mg/kg/injection, schedule: Q01DX009 (ip), vehicle: Klucel (hydroxypropylcellulose) (HPC)
[6] = dose: 400.0 mg/kg/injection, schedule: Q04DX003 (ip), vehicle: Klucel (hydroxypropylcellulose) (HPC)
[7] = dose: 100.0 mg/kg/injection, schedule: Q04DX002 (ip), vehicle: Klucel (hydroxypropylcellulose) (HPC)
[8] = dose: 200.0 mg/kg/injection, schedule: Q04DX002 (ip), vehicle: Klucel (hydroxypropylcellulose) (HPC)
[9] = dose: 100.0 mg/kg/injection, schedule: Q01DX009 (ip), vehicle: saline with Tween-80
[10] = dose: 100.0 mg/kg/injection, schedule: Q04DX003 (ip), vehicle: saline with Tween-80
[11] = dose: 200.0 mg/kg/injection, schedule: Q01DX009 (ip), vehicle: saline with Tween-80
[12] = dose: 200.0 mg/kg/injection, schedule: Q04DX003 (ip), vehicle: saline with Tween-80
[13] = dose: 400.0 mg/kg/injection, schedule: Q01DX009 (ip), vehicle: saline with Tween-80
[14] = dose: 400.0 mg/kg/injection, schedule: Q04DX003 (ip), vehicle: saline with Tween-80
[15] = dose: 400.0 mg/kg/injection, schedule: Q04DX002 (ip), vehicle: saline with Tween-80
[16] = dose: 5.0 mg/kg/injection, schedule: Q01DX001 (ip), vehicle: saline
[17] = dose: 10.0 mg/kg/injection, schedule: Q01DX001 (ip), vehicle: saline
[18] = dose: 20.0 mg/kg/injection, schedule: Q01DX001 (ip), vehicle: saline
[19] = dose: 40.0 mg/kg/injection, schedule: Q01DX001 (ip), vehicle: saline
[20] = dose: 100.0 mg/kg/injection, schedule: Q01DX001 (ip), vehicle: saline
[21] = dose: 100.0 mg/kg/injection, schedule: Q01DX001 (ip), vehicle: carboxymethylcellulose (CMC)
[22] = dose: 200.0 mg/kg/injection, schedule: Q01DX001 (ip), vehicle: carboxymethylcellulose (CMC)
[23] = dose: 400.0 mg/kg/injection, schedule: Q01DX001 (ip), vehicle: carboxymethylcellulose (CMC)
[24] = dose: 12.5 mg/kg/injection, schedule: Q04DX002 (ip), vehicle: saline with Tween-80
[25] = dose: 75.0 mg/kg/injection, schedule: Q01DX001 (ip), vehicle: saline
[26] = dose: 150.0 mg/kg/injection, schedule: Q01DX001 (ip), vehicle: saline
[27] = dose: 300.0 mg/kg/injection, schedule: Q01DX001 (ip), vehicle: saline

Measured: T/C

CCOC(=O)C(=O)Cc1cnc2ccccc2n1
inactive: [1] 113 % of control | [2] 97 % of control | [3] 94 % of control | [4] 96 % of control | [5] 92 % of control | [6] 100 % of control

CCn1c2ccccc2c2cc3ccnc(C)c3cc21
inactive: [7] 97 % of control | [8] 101 % of control | dose: 400.0 mg/kg/injection, schedule: Q04DX002 (ip), vehicle: Klucel (hydroxypropylcellulose) (HPC) 111 % of control

Cc1c2cnccc2c(C)c2c1c1ccccc1n2CCCN1C(=O)c2ccccc2C1=O
inactive: dose: 50.0 mg/kg/injection, schedule: Q04DX003 (ip), vehicle: saline with Tween-80 100 % of control | [9] 104 % of control | [10] 97 % of control | dose: 150.0 mg/kg/injection, schedule: Q01DX001 (oral), vehicle: saline with Tween-80 105 % of control | [11] 102 % of control and 107 % of control | [12] 101 % of control | dose: 300.0 mg/kg/injection, schedule: Q01DX001 (oral), vehicle: saline with Tween-80 112 % of control | [13] 111 % of control and 120 % of control | [14] 117 % of control | dose: 600.0 mg/kg/injection, schedule: Q01DX001 (oral), vehicle: saline with Tween-80 112 % of control | dose: 600.0 mg/kg/injection, schedule: Q01DX009 (ip), vehicle: saline with Tween-80 121 % of control | dose: 1200.0 mg/kg/injection, schedule: Q01DX001 (oral), vehicle: saline with Tween-80 121 % of control

CN(C)c1ccc(C(=C(C#N)C#N)c2ccc(N(C)C)cc2)cc1
inactive: [1] 98 % of control | [2] 95 % of control | [3] 98 % of control | [4] 101 % of control | [5] 102 % of control | [6] 101 % of control

Nc1ccccc1SSc1ccccc1N
inactive: [7] 86 % of control | [8] 86 % of control

CN(C)C=NC1CCC(C(C)(C)C)CC1 (centres undefined)
inactive: dose: 12.5 mg/kg/injection, schedule: Q01DX009 (ip), vehicle: Klucel (hydroxypropylcellulose) (HPC) 96 % of control | dose: 12.5 mg/kg/injection, schedule: Q04DX003 (ip), vehicle: Klucel (hydroxypropylcellulose) (HPC) 103 % of control | dose: 25.0 mg/kg/injection, schedule: Q01DX009 (ip), vehicle: Klucel (hydroxypropylcellulose) (HPC) 102 % of control | dose: 25.0 mg/kg/injection, schedule: Q04DX003 (ip), vehicle: Klucel (hydroxypropylcellulose) (HPC) 95 % of control | dose: 50.0 mg/kg/injection, schedule: Q04DX003 (ip), vehicle: Klucel (hydroxypropylcellulose) (HPC) 93 % of control

O=[N+]([O-])c1ccc(Cc2ccccc2)cc1 (tested in a mixture with another compound)
inactive: dose: 100.0 mg/kg/injection, schedule: Q04DX002 (ip), vehicle: saline with Tween-80 101 % of control | dose: 200.0 mg/kg/injection, schedule: Q04DX002 (ip), vehicle: saline with Tween-80 101 % of control | [15] 97 % of control

c1ccc(CCCn2cnc3cnccc32)cc1
inactive: [16] 100 % of control | [17] 103 % of control | [18] 105 % of control | [19] 100 % of control | [20] 96 % of control

CCNC(=O)CC#N
inactive: [21] 102 % of control | [22] 91 % of control | [23] 108 % of control

COC(=O)C(CSCSC)NC(=O)Nc1ccccc1C (centres undefined)
inactive: [9] 102 % of control | [11] 90 % of control | [13] 97 % of control

CC(C)[CH2][Sn](=[O])[CH2]C(C)C
inactive: dose: 6.25 mg/kg/injection, schedule: Q04DX002 (ip), vehicle: saline with Tween-80 108 % of control | [24] 96 % of control

O=c1c2ccccc2[nH]c(=S)n1-c1cccc(Cl)c1
inactive: [25] 93 % of control | [26] 89 % of control | [27] 91 % of control

O=C(c1ccccc1)C(C(O)CCl)C(O)(C(F)(F)F)C(F)(F)F (centres undefined)
inactive: [10] 89 % of control | [12] 93 % of control | [14] 91 % of control

CCCCCCCNC(=O)Nc1cc([N+](=O)[O-])ccc1C
inactive: [9] 98 % of control | [11] 98 % of control | [13] 94 % of control

O=C(O)c1cc(/C=C/c2ccccc2)ccc1[N+](=O)[O-]
inactive: dose: 100.0 mg/kg/injection, schedule: Q04DX003 (ip), vehicle: saline 103 % of control | dose: 200.0 mg/kg/injection, schedule: Q04DX003 (ip), vehicle: saline 97 % of control | dose: 400.0 mg/kg/injection, schedule: Q04DX003 (ip), vehicle: saline 100 % of control

O=C(O)c1c(O)cc(=O)oc1-c1ccc(Cl)cc1Cl
inactive: [25] 101 % of control | [26] 101 % of control | [27] 106 % of control

Oc1ccc2ccccc2c1N=Nc1cc[c]([Hg][Cl])cc1
inactive: [16] 91 % of control | [17] 107 % of control | [18] 96 % of control | [19] 100 % of control

CC1(C)N=C(N)N=C(N)N1c1ccc(CCCCc2ccc(S(=O)(=O)F)cc2)c(Cl)c1
inactive: dose: 7.5 mg/kg/injection, schedule: Q01DX001 (ip), vehicle: saline 99 % of control | dose: 7.5 mg/kg/injection, schedule: Q04DX003 (ip), vehicle: saline 104 % of control | dose: 13.0 mg/kg/injection, schedule: Q01DX007 (ip), vehicle: saline with Tween-80 109 % of control | dose: 15.0 mg/kg/injection, schedule: Q01DX001 (ip), vehicle: saline 99 % of control | dose: 15.0 mg/kg/injection, schedule: Q04DX003 (ip), vehicle: saline 106 % of control | dose: 20.0 mg/kg/injection, schedule: Q01DX007 (ip), vehicle: saline with Tween-80 116 % of control | dose: 30.0 mg/kg/injection, schedule: Q01DX001 (ip), vehicle: saline 94 % of control | dose: 30.0 mg/kg/injection, schedule: Q01DX007 (ip), vehicle: saline with Tween-80 122 % of control | dose: 30.0 mg/kg/injection, schedule: Q04DX003 (ip), vehicle: saline 109 % of control | dose: 45.0 mg/kg/injection, schedule: Q01DX007 (ip), vehicle: saline with Tween-80 95 % of control

N#CSCC(CCCCCCCCC(=O)O)SC#N (centres undefined)
inactive: [24] 91 % of control | dose: 25.0 mg/kg/injection, schedule: Q04DX002 (ip), vehicle: saline with Tween-80 100 % of control

O=C1NCCCC1O (centres undefined)
inactive: dose: 50.0 mg/kg/injection, schedule: Q01DX001 (ip), vehicle: carboxymethylcellulose (CMC) 94 % of control | [21] 89 % of control | [22] 105 % of control | [23] 103 % of control

O=C(O)CSCc1ccc([N+](=O)[O-])cc1
inactive: [2] 100 % of control | [4] 100 % of control | [6] 100 % of control

O=c1sc(=S)[nH]c2ccccc12
inactive: [2] 88 % of control | [4] 93 % of control

CCCCC(C)(C)COc1nc(OCC(C)(C)CCCC)nc(OCC(C)(C)CCCC)n1
inactive: dose: 25.6 mg/kg/injection, schedule: Q04DX002 (ip), vehicle: saline with Tween-80 97 % of control | dose: 64.0 mg/kg/injection, schedule: Q04DX002 (ip), vehicle: saline with Tween-80 87 % of control | [10] 89 % of control | [15] 91 % of control | [14] 89 % of control

COc1ccc(CN2CCCN(Cc3ccc(OC)cc3OC)C2c2cc(Cl)cc(Cl)c2O)c(OC)c1
inactive: dose: 50.0 mg/kg/injection, schedule: Q01DX001 (ip), vehicle: saline 92 % of control | [20] 97 % of control | dose: 200.0 mg/kg/injection, schedule: Q01DX001 (ip), vehicle: saline 92 % of control | dose: 400.0 mg/kg/injection, schedule: Q01DX001 (ip), vehicle: saline 90 % of control
